The values that follow are results of earlier work, collected in US20040142049A1, “Compositions having tnf production inhibitory effect and tnf production inhibitors” (priority 2001, published 2004).

The subject of the series is TNF. The following applies: background art, prior publications.

Each structure is given as a SMILES string.

For `COc1cc(/C=C/C(=O)CC(=O)/C=C/c2ccc(O)c(OC)c2)ccc1O` [curcumin], the “TNF production inhibitory effect (in words)” value is “has a TNF production inhibitory effect”.
